From US10597388B2, “Pyridazinone herbicides” (FMC CORPORATION, priority 2014, dated 2020)

Experiments:
Format in all cases: in vivo
kochia (Kochia scoparia) = assay: Test A greenhouse herbicide test, pre- and postemergence
Method in brief: (§1)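 Seeds in loam–sand blend received a preemergence directed soil spray; plants at 2–10 cm, one- to two-leaf stage, received postemergence sprays. Compounds in a non-phytotoxic solvent with surfactant. After about 10 d in a greenhouse, injury rated visually versus untreated controls on a 0–100 scale (100 = complete control).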

[1] = tested on: barnyardgrass (Echinochloa crus-galli); assay: as above
Method in brief: as §1

[2] = tested on: pigweed (Amaranthus retroflexus); assay: as above
Method in brief: as §1

[3] = tested on: ryegrass, Italian (Italian ryegrass, Lolium multiflorum); assay: as above
Method in brief: as §1

[4] = tested on: wheat (Triticum aestivum); assay: as above; details: Postemergence
Method in brief: as §1

[5] = tested on: foxtail, giant (giant foxtail, Setaria faberii); assay: as above
Method in brief: as §1

corn (Zea mays) = assay: as above; details: Postemergence
Method in brief: as §1

[6] = tested on: ragweed (common ragweed, Ambrosia elatior); assay: as above
Method in brief: as §1

[7] = tested on: blackgrass (Alopecurus myosuroides); assay: Test A greenhouse herbicide test, postemergence
Method in brief: (§2)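 Visual injury score, 0 (no effect) to 100 (complete control), versus untreated controls roughly 10 d after postemergence spray; plants at one- to two-leaf stage, 2 to 10 cm tall, in loam soil and sand, kept in greenhouse.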

[8] = tested on: galium (catchweed bedstraw, Galium aparine); assay: Test A greenhouse herbicide test, postemergence
Method in brief: as §2

[9] = tested on: barnyardgrass (Echinochloa crus-galli); assay: Test B flooded paddy test; details: 250 g ai/ha, Flood; visual rating on scale of 0 to 100 where 0 is no effect and 100 is complete control; 13 to 15 d after treatment
Method in brief: (§3)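 Plants grown to the 2-leaf stage. At treatment, pots were flooded to 3 cm above the soil, compound was applied directly to the paddy water, and that depth was held throughout. After 13 to 15 d in the greenhouse, response was rated visually against controls on a 0 (no effect) to 100 (complete control) scale.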

[10] = tested on: sedge, umbrella (small-flower umbrella sedge, Cyperus difformis); assay: Test B flooded paddy test; details: 250 g ai/ha, Flood; visual rating on scale of 0 to 100 where 0 is no effect and 100 is complete control; 13 to 15 d after treatment
Method in brief: as §3

rice (Oryza sativa) = assay: Test B flooded paddy test; details: 250 g ai/ha, Flood; visual rating on scale of 0 to 100 where 0 is no effect and 100 is complete control; 13 to 15 d after treatment
Method in brief: as §3

[11] = tested on: ducksalad (Heteranthera limosa); assay: Test B flooded paddy test; details: 250 g ai/ha, Flood; visual rating on scale of 0 to 100 where 0 is no effect and 100 is complete control; 13 to 15 d after treatment
Method in brief: as §3

[12] = Postemergence, 125 g ai/ha, 0 to 100 scale, 0 no effect, 100 complete control
[13] = Postemergence, 500 g ai/ha, visual rating after approx. 10 d, 0 to 100 scale (0 no effect, 100 complete control)
[14] = Preemergence, 125 g ai/ha, visual injury rating, 0 to 100 scale (0 no effect, 100 complete control), approx. 10 d
[15] = Preemergence, 500 g ai/ha, 0 to 100 scale where 0 is no effect and 100 is complete control
[16] = 125 g ai/ha, 0 to 100 scale, 0 no effect, 100 complete control
[17] = 500 g ai/ha, visual rating after approx. 10 d, 0 to 100 scale (0 no effect, 100 complete control)
[18] = Postemergence, 125 g ai/ha, 0 to 100 scale where 0 is no effect and 100 is complete control
[19] = Preemergence, 125 g ai/ha, 0 to 100 scale where 0 is no effect and 100 is complete control
[20] = 125 g ai/ha, 0 to 100 scale where 0 is no effect and 100 is complete control

Compound | Plant response rating, Kochia (kochia (Kochia scoparia); [13]) | Plant response rating, Kochia (kochia (Kochia scoparia); [15]) | Plant response rating, Barnyardgrass [1, 15] | Plant response rating, Pigweed [2, 13] | Plant response rating, Pigweed [2, 15] | Plant response rating, Ryegrass, Italian [3, 13] | Plant response rating, Ryegrass, Italian [3, 15] | Plant response rating, Wheat [4, 17] | Plant response rating, Foxtail, Giant [5, 13] | Plant response rating, Foxtail, Giant [5, 15] | Plant response rating, Corn (corn (Zea mays); [17]) | Plant response rating, Ragweed [6, 13] | Plant response rating, Ragweed [6, 15] | Plant response rating, Galium [8, 17] | Plant response rating, Barnyardgrass [9] | Plant response rating, Sedge, Umbrella [10] | Plant response rating, Rice (rice (Oryza sativa)) | Plant response rating, Ducksalad [11] | also measured
CC(=O)Oc1c(C)nn(C)c(=O)c1-c1ccc(Cl)c2ccccc12 [Compound 157] | 100 | 100 | 90 | 100 | 100 | 100 | 100 | 50 | 80 | 80 | 40 | 100 | 90 | 100 | 20 | 75 | 0 | 0 | Plant response rating, Kochia (kochia (Kochia scoparia); [12]): 100; Plant response rating, Kochia (kochia (Kochia scoparia); [14]): 100; Plant response rating, Barnyardgrass [1, 12]: 50; Plant response rating, Barnyardgrass [1, 13]: 80; Plant response rating, Barnyardgrass [1, 14]: 70; Plant response rating, Pigweed [2, 12]: 90; Plant response rating, Pigweed [2, 14]: 100; Plant response rating, Ryegrass, Italian [3, 12]: 100; Plant response rating, Ryegrass, Italian [3, 14]: 100; Plant response rating, Wheat [4, 16]: 0; Plant response rating, Foxtail, Giant [5, 12]: 60; Plant response rating, Foxtail, Giant [5, 14]: 50; Plant response rating, Corn (corn (Zea mays); [16]): 0; Plant response rating, Ragweed [6, 12]: 100; Plant response rating, Ragweed [6, 14]: 60; Plant response rating, Blackgrass [7, 16]: 60; Plant response rating, Blackgrass [7, 17]: 70; Plant response rating, Galium [8, 16]: 100
CCc1ccc2ccc(C)cc2c1-c1c(O)c(C)nn(C)c1=O [Compound 103] | 90 | 40 | 90 | 100 | 100 | 100 | 100 | 20 | 90 | 100 | 60 | 100 | 100 | 100 | 30 | 50 | 0 | 0 | Plant response rating, Kochia (kochia (Kochia scoparia); [18]): 50; Kochia plant response rating (kochia (Kochia scoparia); [19]): 20; Plant response rating, Barnyardgrass [1, 18]: 40; Barnyardgrass plant response rating ([1]; Postemergence, 500 g ai/ha, 0 to 100 scale, 0 is no effect, 100 is complete control): 90; Barnyardgrass plant response rating [1, 19]: 40; Plant response rating, Pigweed [2, 18]: 90; Pigweed plant response rating [2, 19]: 100; Plant response rating, Ryegrass, Italian [3, 18]: 100; Ryegrass, Italian plant response rating [3, 19]: 90; Plant response rating, Wheat [4, 20]: 0; Plant response rating, Foxtail, Giant [5, 18]: 90; Foxtail, Giant plant response rating [5, 19]: 80; Plant response rating, Corn (corn (Zea mays); [20]): 20; Plant response rating, Ragweed [6, 18]: 100; Ragweed plant response rating [6, 19]: 90; Plant response rating, Blackgrass [7, 20]: 70; Blackgrass plant response rating ([7]; 500 g ai/ha, 0 to 100 scale, 0 is no effect, 100 is complete control): 90; Plant response rating, Galium [8, 20]: 100
